Measurements taken from PubChem BioAssay (NCI).
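Protocol summary: plate cells (96-well), add compound at 5 concentrations, incubate 48 h, interpolate endpoints linearly. GI50: concentration for 50% inhibition of growth. TGI: total growth inhibition.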

What was measured:
Assay in all cases: NCI anticancer screen, dose series, 48 h
[1] = tested on: SNB-19 CNS
[2] = tested on: MOLT-4 leukemia
[3] = tested on: RXF 393 renal
[4] = tested on: SN12C renal
[5] = tested on: COLO 205 colon
[6] = tested on: 786-0 renal
[7] = tested on: OVCAR-8 ovarian
[8] = tested on: MALME-3M melanoma
[9] = tested on: CCRF-CEM leukemia
[10] = tested on: KM12 colon
[11] = tested on: HOP-18 NSCLC
[12] = tested on: HCT-15 colon
[13] = tested on: M14 melanoma
[14] = tested on: RPMI-8226 leukemia
[15] = tested on: SR leukemia
[16] = tested on: RXF-631 renal
[17] = tested on: DLD-1 colon
[18] = tested on: LOX IMVI melanoma
[19] = tested on: SW-620 colon
[20] = tested on: HCT-116 colon
[21] = tested on: HOP-92 NSCLC
[22] = tested on: XF 498 CNS
[23] = tested on: SF-539 CNS
[24] = tested on: HT29 colon
[25] = tested on: SK-MEL-2 melanoma
[26] = tested on: IGROV1 ovarian
[27] = tested on: SNB-75 CNS
[28] = tested on: A498 renal
[29] = tested on: ACHN renal
[30] = tested on: DMS 273 small cell lung
[31] = tested on: A549 NSCLC
[32] = tested on: EKVX NSCLC
[33] = tested on: OVCAR-5 ovarian
[34] = tested on: CAKI-1 renal
[35] = tested on: SK-MEL-28 melanoma
[36] = tested on: OVCAR-4 ovarian
[37] = tested on: UACC-257 melanoma
[38] = tested on: TK-10 renal
[39] = tested on: U251 CNS
[40] = tested on: UACC-62 melanoma
[41] = tested on: SF-268 CNS
[42] = tested on: NCI-H23 lung
[43] = tested on: KM20L2 colon
[44] = tested on: HL-60(TB) leukemia
[45] = tested on: SNB-78 CNS
[46] = tested on: NCI-H460 lung
[47] = tested on: K-562 leukemia
[48] = tested on: SK-MEL-5 melanoma
[49] = tested on: LXFL 529 NSCLC
[50] = tested on: HCC-2998 colon
[51] = tested on: HOP-62 NSCLC
[52] = tested on: SF-295 CNS
[53] = tested on: M19-MEL melanoma
[54] = tested on: NCI-H226 lung
[55] = tested on: UO-31 renal
[56] = tested on: NCI-H522 lung
[57] = tested on: OVCAR-3 ovarian
[58] = tested on: DMS 114 small cell lung
[59] = tested on: SK-OV-3 ovarian

CCCOc1ccc(/C=C/c2cc(OC)c(OC)c(OC)c2)cc1
TGI [1]: > 100 µM | TGI [2]: 13.2 µM | TGI [3]: 0.904 µM | TGI [4]: > 74 µM | TGI [5]: 2.42 µM | TGI [6]: > 56.3 µM | TGI [7]: 22.3 µM | TGI [8]: 84.8 µM | TGI [9]: 24.5 µM | TGI [10]: > 25.4 µM | TGI [11]: > 100 µM | TGI [12]: 15.1 µM | TGI [13]: > 100 µM | TGI [14]: 28.4 µM | TGI [15]: 31.2 µM | TGI [16]: > 100 µM | TGI [17]: 35.7 µM | TGI [18]: > 50.5 µM | TGI [19]: > 100 µM | TGI [20]: > 33.3 µM | TGI [21]: 7.41 µM | TGI [22]: 84.9 µM | TGI [23]: 0.754 µM | TGI [24]: 3.93 µM | TGI [25]: > 100 µM | TGI [26]: > 100 µM | TGI [27]: 0.603 µM | TGI [28]: > 22.6 µM | TGI [29]: > 100 µM | TGI [30]: 11.7 µM | TGI [31]: > 100 µM | TGI [32]: > 100 µM | TGI [33]: 72.9 µM | TGI [34]: 37.6 µM | TGI [35]: > 100 µM | TGI [36]: > 72.9 µM | TGI [37]: 39.3 µM | TGI [38]: > 100 µM | TGI [39]: > 29.6 µM | TGI [40]: > 100 µM | TGI [41]: > 100 µM | TGI [42]: 0.706 µM | TGI [43]: 0.406 µM | TGI [44]: 1.16 µM | TGI [45]: > 100 µM | TGI [46]: > 32.4 µM | TGI [47]: > 100 µM | TGI [48]: 0.467 µM | TGI [49]: > 100 µM | TGI [50]: > 100 µM | GI50 [51]: 0.32 µM | TGI [51]: > 100 µM | TGI [52]: 1.06 µM | TGI [53]: > 100 µM | TGI [54]: 2.54 µM | TGI [55]: > 100 µM | TGI [56]: 0.478 µM

C/C(=N\NC(N)=S)c1ccc(/C(C)=N/NC(N)=S)cc1
TGI [1]: > 100 µM | TGI [2]: > 100 µM | TGI [3]: > 100 µM | TGI [4]: > 100 µM | TGI [5]: > 100 µM | TGI [57]: > 100 µM | TGI [6]: > 100 µM | TGI [7]: > 100 µM | TGI [8]: > 100 µM | TGI [9]: > 100 µM | TGI [10]: > 100 µM | TGI [11]: > 100 µM | TGI [12]: > 100 µM | TGI [13]: > 100 µM | TGI [14]: > 100 µM | TGI [15]: > 100 µM | TGI [16]: > 100 µM | TGI [17]: > 100 µM | TGI [18]: > 100 µM | TGI [19]: > 100 µM | TGI [20]: > 100 µM | TGI [21]: > 100 µM | TGI [22]: > 100 µM | TGI [23]: > 100 µM | TGI [24]: > 100 µM | TGI [26]: > 100 µM | TGI [27]: > 100 µM | TGI [28]: > 100 µM | TGI [29]: > 100 µM | TGI [58]: > 100 µM | TGI [31]: > 100 µM | TGI [32]: > 100 µM | TGI [33]: > 100 µM | TGI [35]: > 100 µM | TGI [37]: > 100 µM | TGI [38]: > 100 µM | TGI [39]: > 100 µM | TGI [40]: > 100 µM | TGI [41]: > 100 µM | TGI [42]: > 100 µM | TGI [59]: > 100 µM | TGI [43]: > 100 µM | TGI [44]: > 100 µM | TGI [46]: > 100 µM | TGI [47]: > 100 µM | TGI [48]: > 100 µM | TGI [49]: > 100 µM | TGI [50]: > 100 µM | TGI [51]: > 100 µM | TGI [52]: > 100 µM | TGI [53]: > 100 µM | TGI [54]: > 100 µM | TGI [55]: > 100 µM | TGI [56]: > 100 µM
